Assay results taken from patent publication US12433872B2, “Treatment of Acanthamoeba or Balamuthia trophozoites and/or cysts” (GEORGIA STATE UNIVERSITY RESEARCH FOUNDATION, INC., priority 2018, dated 2025).
Read-outs that look alike come from different tables or passages of the source.

Experiments:
[1] = tested on: Acanthamoeba castellanii trophozoites; assay: Activity against Acanthamoeba castellanii trophozoites; assay type: cell-based
Method: Two Acanthamoeba species (Acanthamoeba castellanii—ATCC50370 and Acanthamoeba culbertsoni—ATCC30171) were bought from the American Type Culture Collection (ATCC) and one species (Acanthamoeba healyi) was donated from the Centers for Disease Control and Prevention (CDC) for our experimentations. Trophozoites were thawed and grown in 10 mL of a nutrient rich Peptose-Glucose (PG) media. The PG media composition is 83.26 mM Glucose (15 g/L), Protease Peptone (15 g/L, yeast extract is manufactured under controlled conditions to retain its vitamin content and other nutritive values such as free amino acids, no other composition information given), 2.2 mM KH2PO4 (300 mg/L), 2.97 μM Thiamine (1 mg/L), 99.86 μM L-methionine (14.9 mg/L), 4.6 μM Vitamin B12 (83.3 μl of 0.1 mg/mL stock/L) and 68 μM Biotin (83.3 μl of 0.2 mg/mL stock/L). […] One mL/L of the salt solution was added to the media stock prior to autoclaving. All reagents were purchased from Sigma Aldrich except the Glucose which was purchased from Alfa Aesar. The cell pellet was resuspended in a final volume of 10 mL of PG media, cultured in 75 cm^2 coming tissue culture flasks and incubated at 27° C. PG was supplemented with 125 μg of penicillin/streptomycin. Sub-culturing occurred twice per week to allow the continued growth and development of the Acanthamoeba trophozoites. […]

[2] = tested on: Balamuthia mandrillaris trophozoites; assay: Activity against Balamuthia mandrillaris trophozoites; assay type: cell-based; conditions: Balamuthia mandrillaris, read-out: Balamuthia mandrillaris IC50
Method: Balamuthia mandrillaris trophozoites were thawed and grown in 10 ml of BM-3 medium. […] After autoclaving, complete BM-3 media was produced by the addition of 10% fetal bovine serum and 125 μg of penicillin/streptomycin antibiotics. The table describes all of the compounds and the activity against Balamuthia trophozoites compared to the activity for select Acanthamoeba trophozoites shown in Table 5.

[3] = trophozoites, n = 2, Table 6, read-out: Acanthamoeba castellanii IC50
[4] = read-out: Acanthamoeba castellanii IC50

| IC50 [1, 3] [nM] | IC50 ([2]; trophozoites, n = 2) [nM] | IC50 [1, 4] [nM] | IC50 [2] [nM] | Compound |
| --- | --- | --- | --- | --- |
| 1090 | 380 |  |  | CC(C)NC(=N)c1ccc2nc(-c3ccc(Oc4ccc(-c5nc6ccc(C(=N)NC(C)C)cc6[nH]5)cc4I)cc3)[nH]c2c1 [AE, 2-(3-Iodo-4-(4-(6-(N-isopropylcarbamimidoyl)-1H-benzo[d]imidazol-2-yl)phenoxy)phenyl)-N-isopropyl-1H-benzo[d]imidazole-6-carboximidamide] |
|  |  | 2920 | 70 | COc1cc(Oc2ccc(-c3nc4ccc(C(=N)NC(C)C)cc4[nH]3)cc2)ccc1-c1nc2ccc(C(=N)NC(C)C)cc2[nH]1 [AI] |
| 1700 | 50 |  |  | CC(C)NC(=N)c1ccc2nc(-c3ccc(N(C)c4ccc(-c5nc6ccc(C(=N)NC(C)C)cc6[nH]5)cc4)cc3)[nH]c2c1 [BA] |
| 2990 | 100 |  |  | N=C(NC1CCCC1)c1ccc2nc(-c3ccc(Oc4ccc(-c5nc6ccc(C(=N)NC7CCCC7)cc6[nH]5)cc4)cc3)[nH]c2c1 [BB] |
| 5710 | 350 |  |  | N=C(c1ccc2nc(-c3ccc(Oc4ccc(-c5nc6ccc(C(=N)N7CCCCCC7)cc6[nH]5)cc4)cc3)[nH]c2c1)N1CCCCCC1 [BD] |
| 4910 | 380 |  |  | N=C(c1ccc2nc(-c3ccc(Oc4ccc(-c5nc6ccc(C(=N)N7CCOCC7)cc6[nH]5)cc4)cc3)[nH]c2c1)N1CCOCC1 [BE] |
| 3870 | 410 |  |  | CC1CCN(C(=N)c2ccc3nc(-c4ccc(Oc5ccc(-c6nc7ccc(C(=N)N8CCC(C)CC8)cc7[nH]6)cc5)cc4)[nH]c3c2)CC1 [BF] |
| 310 | 50 |  |  | CC(C)NC(=N)c1ccc2nc(-c3ccc(Oc4ccc(-c5nc6ccc(C(=N)NC(C)C)cc6[nH]5)c(Cl)c4)cc3)[nH]c2c1 [Compound AG] |
|  |  | 460 | 50 | CC(C)NC(=N)c1ccc2nc(-c3ccc(Oc4ccc(-c5nc6ccc(C(=N)NC(C)C)cc6[nH]5)cc4Cl)cc3)[nH]c2c1 [Compound AJ] |

More lines, now with the values behind:

| Compound | IC50 [1, 3] [nM] | IC50 ([2]; trophozoites, n = 2) [nM] | IC50 [1, 4] [nM] | IC50 [2] [nM] |
| --- | --- | --- | --- | --- |
| CC(C)NC(=N)c1ccc2nc(-c3ccc(Oc4ccc(-c5nc6ccc(C(=N)NC(C)C)cc6[nH]5)c(Cl)c4)c(C#N)c3)[nH]c2c1 [AA, 2-(2-Chloro-4-(2-cyano-4-(6-(N-isopropylcarbamimidoyl)-1H-benzo[d]imidazol-2-yl)phenoxy)phenyl)-N-isopropyl-1H-benzo[d]imidazole-6-carboximidamide] | 730 | 60 |  |  |
| CC(C)NC(=N)c1ccc2nc(-c3ccc(Oc4c(F)cc(-c5nc6ccc(C(=N)NC(C)C)cc6[nH]5)cc4F)c(F)c3)[nH]c2c1 [AC, 2-(3,5-Difluoro-4-(2-fluoro-4-(6-(N-isopropylcarbamimidoyl)-1H-benzo[d]imidazol-2-yl)phenoxy)phenyl)-N-isopropyl-1H-benzo[d]imidazole-6-carboximidamide] | 1030 | 390 |  |  |
| CC(C)NC(=N)c1ccc2nc(-c3ccc(Oc4ccc(-c5nc6ccc(C(=N)NC(C)C)cc6[nH]5)c(Cl)c4)c(Cl)c3)[nH]c2c1 [AD, 2-(2-Chloro-4-(2-chloro-4-(6-(N-isopropylcarbamimidoyl)-1H-benzo[d]imidazol-2-yl)phenoxy)phenyl)-N-isopropyl-1H-benzo[d]imidazole-6-carboximidamide] | 830 | 130 |  |  |
| N=C(C1=NCCCN1)c1ccc2nc(-c3ccc4nc(-c5ccccc5)[nH]c4c3)[nH]c2c1 [AL, (2′-phenyl-1H,3′H-[2,5′-bibenzo[d]imidazol]-6-yl)(1,4,5,6-tetrahydropyrimidin-2-yl)methanimine] | 2330 | 280 |  |  |
| COc1ccc(-c2nc3ccc(-c4nc5ccc(C6=NCCCCN6)cc5[nH]4)cc3[nH]2)cc1O [AM, 2-methoxy-5-(6-(4,5,6,7-tetrahydro-1H-1,3-diazepin-2-yl)-1H,3′H-[2,5′-bibenzo[d]imidazol]-2′-yl)phenol] | 1930 | 130 |  |  |
| COc1ccc(-c2nc3ccc(-c4nc5ccc(C(=N)C6=NCCCN6)cc5[nH]4)cc3[nH]2)cc1O [AN, 5-(6-(imino(1,4,5,6-tetrahydropyrimidin-2-yl)methyl)-1H,3′H-[2,5′-bibenzo[d]imidazol]-2′-yl)-2-methoxyphenol] | 480 | 230 |  |  |
| Oc1cccc(-c2nc3ccc(-c4nc5ccc(C6=NCCCCN6)cc5[nH]4)cc3[nH]2)c1 [AO, 3-(6-(4,5,6,7-tetrahydro-1H-1,3-diazepin-2-yl)-1H,3′H-[2,5′-bibenzo[d]imidazol]-2′-yl)phenol] | 2960 | 250 |  |  |
| N=C(N)c1ccc2nc(-c3ccc4nc(-c5ccc(C(N)=O)cc5)[nH]c4c3)[nH]c2c1 [AP, 4-(6-carbamimidoyl-1H,3′H-[2,5′-bibenzo[d]imidazol]-2′-yl)benzamide] |  |  | 47600 | 400 |
| CN(C)CCOc1cccc(-c2nc3ccc(-c4nc5ccc(C(=N)N)cc5[nH]4)cc3[nH]2)c1 [AQ, 2′-(3-(2-(dimethylamino)ethoxy)phenyl)-1H,3′H-[2,5-bibenzo[d]imidazole]-6-carboximidamide] |  |  | 13200 | 420 |
| CC(C)NC(=N)c1ccc2nc(-c3ccc(CCc4ccc(-c5nc6ccc(C(=N)NC(C)C)cc6[nH]5)cc4)cc3)[nH]c2c1 [BC] | > 67800 | 250 |  |  |
| CC(C)NC(=N)c1ccc2nc(-c3ccc(N(c4ccccc4)c4ccc(-c5nc6ccc(C(=N)NC(C)C)cc6[nH]5)cc4)cc3)[nH]c2c1 [BG] | 3100 | 470 |  |  |
| COc1cc(-c2nc3ccc(C(=N)NC(C)C)cc3[nH]2)ccc1Oc1c(F)cc(-c2nc3ccc(C(=N)NC(C)C)cc3[nH]2)cc1F [Compound AB, 2-(3,5-Difluoro-4-(4-(6-(N-isopropylcarbamimidoyl)-1H-benzo[d]imidazol-2-yl)-2-methoxyphenoxy)phenyl)-N-isopropyl-1H-benzo[d]imidazole-6-carboximidamide] | 1440 | 260 |  |  |
| CC(C)NC(=N)c1ccc2nc(-c3ccc(Oc4ccc(-c5nc6ccc(C(=N)NC(C)C)cc6[nH]5)c(F)c4)c(Br)c3)[nH]c2c1 [Compound AF, 2-(3-Bromo-4-(3-fluoro-4-(6-(N-isopropylcarbamimidoyl)-1H-benzo[d]imidazol-2-yl)phenoxy)phenyl)-N-isopropyl-1H-benzo[d]imidazole-6-carboximidamide] | 750 | 130 |  |  |
| CC(C)NC(=N)c1ccc2nc(-c3ccc(Oc4ccc(-c5nc6ccc(C(=N)NC(C)C)cc6[nH]5)c(C(F)(F)F)c4)cc3)[nH]c2c1 [Compound AH] |  |  | 1890 | 90 |
| CN(C)CCNC(=O)c1ccc(-c2nc3ccc(-c4nc5ccc(C(=N)N)cc5[nH]4)cc3[nH]2)cc1 [Compound AK, 4-(6-carbamimidoyl-1H,3′H-[2,5′-bibenzo[d]imidazol]-2′-yl)-N-(2-(dimethylamino)ethyl)benzamide] | 28800 | 80 |  |  |
| COc1ccc(-c2nc3ccc(-c4nc5ccc(C6=NCC(C)(C)CN6)cc5[nH]4)cc3[nH]2)cc1O [Compound AR, 5-(6-(5,5-dimethyl-1,4,5,6-tetrahydropyrimidin-2-yl)-1H,3′H-[2,5′-bibenzo[d]imidazol]-2′-yl)-2-methoxyphenol] | 2010 | 660 |  |  |
| COc1ccc(-c2nc3ccc(-c4nc5ccc(C(=N)NC6CCC6)cc5[nH]4)cc3[nH]2)cc1O [Compound AS] | 2400 | 280 |  |  |
| N=C(NC1CCC1)c1ccc2nc(-c3ccc4nc(-c5cccc(O)c5)[nH]c4c3)[nH]c2c1 [Compound AT] | 1250 | 400 |  |  |
